From patent US20250019376A1, “CHROMANE AMIDINE MONOBACTAM ANTIBIOTICS” (priority 2021, published 2025)

Experiments:
Conditions in all cases: lowest concentration inhibiting 95% of growth (OD600); with BLi relebactam 4 μg/mL; 22 hours, 35±2° C.
[1] = system: Acinetobacter baumannii expressing TEM-1, AmpC, and Oxa-24/40 (CL6188); format: cell-based
Procedure: (§1) The concentrations of compounds required to inhibit the growth of various strains of bacteria were determined in an assay that assessed bacterial growth by measuring optical density at 600 nm (OD600). The bacterial strains tested included the clinical strains Escherichia co/i expressing NDM-1 (CLB30016), Klebsiella pneumoniae expressing KPC-1 (CL6569), Acinetobacter baumannii expressing TEM-1, AmpC, and Oxa-24/40 (CL6188) and Pseudomonas aeruginosa expressing AmpC (CL5701). All compounds were tested in the presence of a f3 lactamase inhibitor (BLi, Relebactam) in 384-well microplates.
(§2) The clinical strains were stored as frozen single use stocks, thawed and diluted into 1.1× cation-adjusted Mueller-Hinton 11 broth to achieve approximately 2×10^5 CFU/mL. Test compounds were dissolved in DMSO and diluted 1:50 in the assay, resulting in a final concentration range of 100 μM to 0.098 μM. On the day of the assay, 1 μL of test compound was added to the plate followed by 4 μL of 50 μg/mL BLi in MOPS buffer and 45 μL of diluted bacteria. Plates were centrifuged at 1000 rpm for 30 seconds, shaken at approximately 800 rpm for 1 minute, and incubated at 35±2° C. for 22 hours. The concentration of BLi used in the assay was 4 μg/mL. At the end of the incubation, absorbance at 600 nm was determined using a spectrophotometer. Inhibition was quantitated by identifying the lowest concentration of test compound that was required to inhibit […] of the growth of the bacteria.

[2] = system: Escherichia co/i expressing NDM-1 (CLB30016); test: Growth inhibitory concentration (OD600), E. coli CLB30016; format: cell-based, Escherichia coli
Procedure: as §1, §2

[3] = system: Klebsiella pneumoniae expressing KPC-1 (CL6569); test: Growth inhibitory concentration (OD600), K. pneumoniae CL6569; format: cell-based
Procedure: as §1, §2

[4] = system: Pseudomonas aeruginosa expressing AmpC (CL5701); test: Growth inhibitory concentration (OD600), P. aeruginosa CL5701; format: cell-based
Procedure: as §1, §2

Structure (SMILES)	AB_CL6188 MITC95 [1]	EC_CLB30016 MITC95 [2]	KP_CL6569 MITC95 [3]	PA_CL5701 MITC95 [4]
CC1(C)[C@H](NC(=O)/C(=N\O[C@](C)(C(=O)O)[C@H]2CCc3cc(C(=N)N[C@H]4CC[C@H](N)CC4)ccc3O2)c2csc(N)n2)C(=O)N1OS(=O)(=O)O [Compound 32, (S)-2-((R)-6-(N-((1r,4R)-4-aminocyclohexyl)carbamimidoyl)chroman-2-yl)-2-((((Z)-1-(2-aminothiazol-4-yl)-2-(((S)-2,2-dimethyl-4-oxo-1-(sulfooxy)azetidin-3-yl)amino)-2-oxoethylidene)amino)oxy)propanoic acid]	3.125 µM	3.125 µM	0.3906 µM	1.563 µM
CC1(C)[C@H](NC(=O)/C(=N\O[C@](C)(C(=O)O)[C@H]2CCc3cc(C(=N)N[C@H]4CC[C@](O)(CN)CC4)ccc3O2)c2csc(N)n2)C(=O)N1OS(=O)(=O)O [Compound 59, (S)-2-((R)-6-(N-((1s,4S)-4-(aminomethyl)-4-hydroxycyclohexyl)carbamimidoyl)chroman-2-yl)-2-((((Z)-1-(2-aminothiazol-4-yl)-2-(((S)-2,2-dimethyl-4-oxo-1-(sulfooxy)azetidin-3-yl)amino)-2-oxoethylidene)amino)oxy)propanoic acid]	3.125 µM	12.5 µM	0.3906 µM	1.563 µM
COCC[C@]1(N)CC[C@@H](NC(=N)c2ccc3c(c2)CC[C@H]([C@](C)(O/N=C(\C(=O)N[C@@H]2C(=O)N(OS(=O)(=O)O)C2(C)C)c2csc(N)n2)C(=O)O)O3)CC1 [Compound 63, (S)-2-((R)-6-(N-((1s,4S)-4-amino-4-(2-methoxyethyl)cyclohexyl)carbamimidoyl)chroman-2-yl)-2-((((Z)-1-(2-aminothiazol-4-yl)-2-(((S)-2,2-dimethyl-4-oxo-1-(sulfooxy)azetidin-3-yl)amino)-2-oxoethylidene)amino)oxy)propanoic acid]	6.25 µM	12.5 µM	0.7813 µM	3.125 µM
CC1(C)[C@H](NC(=O)/C(=N\O[C@](C)(C(=O)O)[C@H]2CCc3cc(C(=N)NC4CCC(N)(CO)CC4)ccc3O2)c2csc(N)n2)C(=O)N1OS(=O)(=O)O (stereo partly drawn) [Compound 69, (S)-2-((R)-6-(N-((1r,4R)-4-amino-4-(hydroxymethyl)cyclohexyl)carbamimidoyl)chroman-2-yl)-2-((((Z)-1-(2-aminothiazol-4-yl)-2-(((S)-2,2-dimethyl-4-oxo-1-(sulfooxy)azetidin-3-yl)amino)-2-oxoethylidene)amino)oxy)propanoic acid]	4.688 µM	6.25 µM	0.3906 µM	1.563 µM
CC1(C)[C@H](NC(=O)/C(=N\O[C@](C)(C(=O)O)[C@H]2CCc3cc(C(=N)N[C@]4(C)CC[C@@H](N)CC4)ccc3O2)c2csc(N)n2)C(=O)N1OS(=O)(=O)O [Compound 71, (S)-2-((R)-6-(N-((1r,4R)-4-amino-1-methylcyclohexyl)carbamimidoyl)chroman-2-yl)-2-((((Z)-1-(2-aminothiazol-4-yl)-2-(((S)-2,2-dimethyl-4-oxo-1-(sulfooxy)azetidin-3-yl)amino)-2-oxoethylidene)amino)oxy)propanoic acid]	4.688 µM	9.375 µM	0.7813 µM	1.563 µM
CC1(C)[C@H](NC(=O)/C(=N\O[C@](C)(C(=O)O)[C@H]2CCc3cc(C(=N)N[C@H]4C[C@](CN)(CO)C4)ccc3O2)c2csc(N)n2)C(=O)N1OS(=O)(=O)O [Compound 78, (S)-2-((R)-6-(N-((1r,3R)-3-(aminomethyl)-3-(hydroxymethyl)cyclobutyl)carbamimidoyl)chroman-2-yl)-2-((((Z)-1-(2-aminothiazol-4-yl)-2-(((S)-2,2-dimethyl-4-oxo-1-(sulfooxy)azetidin-3-yl)amino)-2-oxoethylidene)amino)oxy)propanoic acid]	4.688 µM	6.25 µM	0.3906 µM	1.563 µM
CC1(C)[C@H](NC(=O)/C(=N\O[C@](C)(C(=O)O)[C@H]2CCc3cc(C(=N)N[C@H]4C[C@](N)(CCO)C4)ccc3O2)c2csc(N)n2)C(=O)N1OS(=O)(=O)O [Compound 86, (S)-2-((R)-6-(N-((1s,3S)-3-amino-3-(2-hydroxyethyl)cyclobutyl)carbamimidoyl)chroman-2-yl)-2-((((Z)-1-(2-aminothiazol-4-yl)-2-(((S)-2,2-dimethyl-4-oxo-1-(sulfooxy)azetidin-3-yl)amino)-2-oxoethylidene)amino)oxy)propanoic acid]	6.25 µM	6.25 µM	0.3906 µM	1.563 µM
CC1(C)[C@H](NC(=O)/C(=N\O[C@](C)(C(=O)O)[C@H]2CCc3cc(C(=N)N[C@H]4C[C@@](N)(CCO)C4)ccc3O2)c2csc(N)n2)C(=O)N1OS(=O)(=O)O [Compound 87, (S)-2-((R)-6-(N-((1r,3R)-3-amino-3-(2-hydroxyethyl)cyclobutyl)carbamimidoyl)chroman-2-yl)-2-((((Z)-1-(2-aminothiazol-4-yl)-2-(((S)-2,2-dimethyl-4-oxo-1-(sulfooxy)azetidin-3-yl)amino)-2-oxoethylidene)amino)oxy)propanoic acid]	4.688 µM	6.25 µM	0.3906 µM	1.563 µM
CC1(C)[C@H](NC(=O)/C(=N\O[C@](C)(C(=O)O)[C@H]2CCc3cc(C(=N)N[C@H]4C[C@@](N)(C(O)CO)C4)ccc3O2)c2csc(N)n2)C(=O)N1OS(=O)(=O)O (stereo partly drawn) [Compound 99, (S)-2-((R)-6-(N-((1R,3R)-3-amino-3-((R)-1,2-dihydroxyethyl)cyclobutyl)carbamimidoyl)chroman-2-yl)-2-((((Z)-1-(2-aminothiazol-4-yl)-2-(((S)-2,2-dimethyl-4-oxo-1-(sulfooxy)azetidin-3-yl)amino)-2-oxoethylidene)amino)oxy)propanoic acid]	12.5 µM	6.25 µM	0.7813 µM	3.125 µM
CC1(C)[C@H](NC(=O)/C(=N\O[C@](C)(C(=O)O)[C@H]2CCc3cc(C(=N)N[C@H]4C[C@](N)(C(O)CO)C4)ccc3O2)c2csc(N)n2)C(=O)N1OS(=O)(=O)O (stereo partly drawn) [Compound 100, (S)-2-((R)-6-(N-((1S,3S)-3-amino-3-((R)-1,2-dihydroxyethyl)cyclobutyl)carbamimidoyl)chroman-2-yl)-2-((((Z)-1-(2-aminothiazol-4-yl)-2-(((S)-2,2-dimethyl-4-oxo-1-(sulfooxy)azetidin-3-yl)amino)-2-oxoethylidene)amino)-oxy)propanoic acid]	6.25 µM	6.25 µM	0.7813 µM	1.563 µM
